Columns and labels:
[1] = test system: Conyza bonariensis low herbicide requiring biotype; assay: Photosynthesis (14CO2 fixation) of leaf discs removed 5 h after spray treatment; type: in vivo; settings: foliar, acifluorfen 0 μM, DDC 0.5% alone, leaf discs removed 5 h after treatment, untreated control = 100
Method: (§1) Similarly, both the paraquat resistant and sensitive biotypes of Conyza bonariensis were treated with two other oxidant generating herbicides. Atrazine (of the triazine group) is the most widely used oxidant generating herbicides in agriculture. We used various dilutions of a commercial wettable powder (Atranex 50WP-Agan Chemicals) to which we added 0.5% DDC. The effects were scored 24 h later. […] We also tested to see whether acifluorfen, a nitro diphenyl ether herbicide would be synergized. It is generally agreed that light and oxygen are required for its action via oxidant damage. We sprayed a commercial formulation of acifluorfen (Blazer, Rohm and Haas) to which were added 0.25% Tween-20 detergent, with and without DDC. The effects were scored 24 h later.
^b photosynthesis (^14 CO2 fixation) was used as an
additional measurement of phytotoxicity. Leaf discs were removed 5 h afte
treatment for measurement

[2] = test system: Conyza bonariensis paraquat sensitive (low herbicide requiring) biotype; assay: Malonyldialdehyde in tissue (lipoxidation, membrane damage) after spraying; type: in vivo; settings: atrazine 0 μM; DDC 0.5% alone; low herbicide requiring biotype; untreated control = 100
Method: (§2) Seeds of two biotypes of Conyza bonariensis (L.) Cronq. (synonym C. linifolia) were obtained from Egypt. The paraquat sensitive biotype was gathered near Alexendria and seeds of the resistant type from the Tahrir irrigation district. They were obtained from Dr. Martin Parham in England. Seeds were germinated in a growth room with a 14 h light period at 25° C. Plants were transferred out of doors 24 h before being sprayed. The phytotoxicity of three herbicides representative of the three different modes of generating active oxygen species known at present. Commercial paraquat (Gramoxone-ICI Plant Protection Ltd) was formulated with 0.1% (w/v) Tween-20 (a non-ionic surfactant) for spraying. The response to the range of 10^-5 M to 10^-2 M paraquat was measured by spraying two plants per concentration to run-off in the early morning. All plants were exposed to sunlight for at least 13 h (1300 μE.m^-2s^-1 photosynthetically active radiation (PAR) at mid day). Commercial acifluorfen (Blazer, Rohm, and Hass, Philadelphia, Pa., USA) to which was added 0.25% Tween-20 was sprayed to run-off. The response to spraying was measured as with paraquat 24 h after spraying. Commercial atrazine (Atranex 50 WP-Agan) was sprayed at various rates in 0.25% Tween 20 to run off. Fully expanded, 8 to 10 cm long leaves from plants in the rosette stage were used in all experiments. Phytotoxicity of acifluorfen and paraquat was measured as CO2 fixation 24 h later as follows: Detached leaves were placed on wet filter paper in a sealed chamber with 5μ Ci^14 C-sodium bicarbonate. Tartaric acid was remotely dripped on the sodium bicarbonate to release ^14 CO2. Leaves were illuminated with […] (PAR) for 30 min. Eighty percent acetone was added and the mixture put under strong light to photobleach pigments and evaporate the acetone. A scintillation mixture of Lumax:xylene (45:55) was added to the leaves and remaining water. The samples were counted and the data expressed as DPM.cm^-2. Area was measured with a planimeter from photocopies of the leaves made prior to photosynthesis measurements. Phytotoxicity of atrazine was measured as the elevated level of malonyldialdehyde in the tissue. Malonyldialdehyde (as measured with thiobarbituric acid according to Dodge and Gillham (Asp. Appl. Biol 11 97 (1986)) is a measurement of lipoxidation of unsaturated fatty acids, and provides an excellent estimation of damage by active oxygen species.
(§3) ^b membrane damage was measured as malonyldialdehyde release
as §1

[3] = test system: Conyza bonariensis paraquat tolerant (high herbicide requiring) biotype; assay: as above; type: in vivo; settings: atrazine 0 μM; DDC 0.5% alone; high herbicide requiring biotype; untreated control = 100
Method: as §2, §3, §1

[4] = test system: Conyza bonariensis paraquat sensitive biotype; assay: Phytotoxicity measured as 14CO2 fixation 24 h after spraying; type: in vivo; settings: for % photosynthesis inhibition: sensitive biotype
Method: as §2

[5] = test system: Conyza bonariensis paraquat tolerant biotype; assay: as above; type: in vivo; settings: for % photosynthesis inhibition: tolerant biotype
Method: as §2

bean leaf discs = assay: Bean leaf disc bleaching assay; type: cell-based; settings: paraquat 20 μM; chelator 0.01% w/v where added; 5 h at 450 μEin.m^-2 s^-1
Method: We used this bean leaf disc system to ascertain the potential of chelators to synergize a large variety of phytotoxicants purported to act by generating active oxygen species in the light.
Bean discs were incubated on solutions containing the above mixtures for 5 h at 450 μEin.m^-2 s^-1 and the chlorophyll remaining in the leaves was assayed.

weed species = settings: cited from earlier work
Stellaria media = assay: Whole plant spray, visual rating; type: in vivo; settings: paraquat 30 μM spray to run-off, DDC 0.75% W/V where added, scored 1 day after treatment
From the text: (§4) Seeds of Conyza bonariensis were germinated and plants cultivated as outlined in Example 1. Other species were germinated in a similar mixture and treated at 10 days.
(§5) ^a visual ratings (scored 1 day after treatment): 0 no damage to
(§6) slight burn; 1 moderate burn (may regenerate); 2 severe burn (will die)

Sinapsis arvense = assay: Whole plant spray, visual rating; type: in vivo; settings: paraquat 30 μM spray to run-off, DDC 0.75% W/V where added, scored 1 day after treatment
From the text: as §4, §5, §6

Beans = assay: Whole plant spray, visual rating; type: in vivo; settings: paraquat 100 μM spray to run-off, DDC 0.75% W/V where added, scored 1 day after treatment
From the text: as §4, §5, §6

[6] = herbicide molar conc. 3 × 10^-4
[7] = herbicide molar conc. 3.2 × 10^-5

CCN(CC)C(=S)[S-].[Na+] [DDC, Sodium diethyldithiocarbamate]
activity at 0.5 % [1]: 92%
membrane damage (malonyldialdehyde release) [2]: 125
membrane damage (malonyldialdehyde release) [3]: 112

C[n+]1ccc(-c2cc[n+](C)cc2)cc1 [paraquat, 1,1'-dimethyl-4-4'bipyridium ion]
IC100 ([4]; Conyza bonariensis, 24 h, wild biotype, read-out: concentration at which CO2 assimilation ceased): 10 µM
% photosynthesis inhibition [4, 6]: 100%
% photosynthesis inhibition [4, 7]: 100%
% photosynthesis inhibition ([4]; herbicide molar conc. 10^-3): 100%
% photosynthesis inhibition ([4]; herbicide molar conc. 10^-4): 100%
% photosynthesis inhibition ([4]; herbicide molar conc. 10^-5, spray to run-off): 95%
IC100 ([5]; Conyza bonariensis, 24 h, resistant biotype, read-out: concentration at which CO2 assimilation ceased): 1000 µM
% photosynthesis inhibition ([5]; herbicide molar conc. 3 × 10^-3): 100%
% photosynthesis inhibition [5, 6]: 48%
% photosynthesis inhibition [5, 7]: 0%
% photosynthesis inhibition ([5]; herbicide molar conc. 10^-3): 97%
% photosynthesis inhibition ([5]; herbicide molar conc. 10^-4): 0%
% photosynthesis inhibition ([5]; herbicide molar conc. 10^-5): 0%
chlorophyll - % of control (bean leaf discs): 52 % of control
rate at which species are killed (weed species; Bromis inermis, Amaranthus retroflexus and wheat): 0.01 kg/ha
rate required for good control (weed species; Digitaria, Chenopodium album, Sinapis arvensis and Galium aparine): 3 kg/ha
visual rating (Stellaria media): 0.5
visual rating (Sinapsis arvense): 0.5
visual rating (Beans): 1.5

Source: patent US5219825A, “Synergistic herbicidal compositions comprising herbicides which generate toxic oxygen radicals and chelating agents which inhibit their detoxification” (Yeda Research and Development Co., Ltd., priority 1986, dated 1993)
